ChEMBL document CHEMBL1144005, “Orally active 1,2,4-trioxepanes: synthesis and antimalarial activity of a series of 7-arylvinyl-1,2,4-trioxepanes against multidrug-resistant Plasmodium yoelii in Swiss mice” (2008)

How the values were obtained:
Format in all cases: functional
Parameters in all cases: scale not given: the % may be the effect or the level left
[1] = system: Plasmodium yoelii; experiment: Antimalarial activity against multidrug-resistant Plasmodium yoelii in Swiss mice (Mus musculus) as reduced parasitaemia after 4 days at 96 mg/kg peroral dose; details: route oral
[2] = system: Plasmodium yoelii; experiment: Antimalarial activity as reduced parasitemia at day 4 against multidrug-resistant Plasmodium yoelii in Swiss mice (Mus musculus) at 96 mg/kg Intramuscular dose
[3] = system: Plasmodium yoelii; experiment: Antimalarial activity against multidrug-resistant Plasmodium yoelii in Swiss mice (Mus musculus) as reduced parasitaemia after peroral 48 mg/kg dose for 4 days; details: route oral

Row | SMILES | Activity [1] [%] | Activity [2] [%] | Activity [3] [%]
1 | C=C(c1ccc(Cl)cc1)C1CCOC(C)(C)OO1 (stereo not given) | 48.77 | 57.64 | 
2 | C=C(c1ccc(Cl)cc1)C1CCOC2(OO1)C1CC3CC(C1)CC2C3 (stereo not given) | 58.38 | 12.18 | 
3 | C=C(c1ccc(-c2ccccc2)cc1)C1CCOC2(OO1)C1CC3CC(C1)CC2C3 (stereo not given) | 44.78 | 31.98 | 
4 | C=C(c1ccccc1)C1CCOC2(CCCCC2)OO1 (stereo not given) | 35.8 | 9.38 | 
5 | C=C(c1ccc(-c2ccccc2)cc1)C1CCOC(C)(C)OO1 (stereo not given) | 98.22 | 42.13 | 
6 | C=C(c1ccccc1)C1CCOC2(CCC(O)CC2)OO1 (stereo not given) | 53.59 | 21.39 | 
7 | C=C(c1ccc(-c2ccccc2)cc1)C1CCOC2(CCCC2)OO1 (stereo not given) | 64.38 | 42.36 | 
8 | C=C(c1cccc2ccccc12)C1CCOC2(CCCCC2)OO1 (stereo not given) | 17.16 | 22.25 | 
9 | C=C(c1ccc(Cl)cc1)C1CCOC2(CCCCC2)OO1 (stereo not given) | 24.69 | 46.91 | 
10 | C=C(c1ccc(Cl)cc1)C1CCOC2(CCC(O)CC2)OO1 (stereo not given) | 54.59 | 11.47 | 
11 | C=C(c1ccccc1)C1CCOC(C)(C)OO1 (stereo not given) | 92.38 | 87.31 | 
12 | C=C(c1cccc2ccccc12)C1CCOC(C)(C)OO1 (stereo not given) | 70.37 | 32.1 | 
13 | C=C(c1ccc(-c2ccccc2)cc1)C1CCOC2(CCC(=O)CC2)OO1 (stereo not given) | 98.49 | 100 | 
14 | C=C(c1ccccc1)C1CCOC2(CCC(=O)CC2)OO1 (stereo not given) | 72.02 | 36.6 | 
15 | C=C(c1ccccc1)C1CCOC2(OO1)C1CC3CC(C1)CC2C3 (stereo not given) | 57.36 | 27.41 | 
16 | C=C(c1cccc2ccccc12)C1CCOC2(OO1)C1CC3CC(C1)CC2C3 (stereo not given) | 38.27 | 11.11 | 
17 | C=C(c1ccc(-c2ccccc2)cc1)C1CCOC2(CCC(O)CC2)OO1 (stereo not given) | 84.13 | 75.47 | 
18 | C=C(c1cccc2ccccc12)C1CCOC2(CCCC2)OO1 (stereo not given) | 49.75 | 19.8 | 
19 | C=C(c1ccc(-c2ccccc2)cc1)C1CCOC2(CCCCC2)OO1 (stereo not given) | 91.36 | 24.69 | 
20 | C=C(c1ccccc1)C1CCOC2(CCCC2)OO1 (stereo not given) | 18.21 | 58.71 | 
21 | CCO[C@H]1O[C@@H]2O[C@@]3(C)CC[C@H]4[C@H](C)CC[C@@H]([C@H]1C)[C@@]24OO3 [ARTEMOTIL] |  |  | 100
22 | C=C(c1ccc(Cl)cc1)C1CCOC2(CCCC2)OO1 (stereo not given) | 27.16 | 6.17 | 
23 | C=C(c1ccc(Cl)cc1)C1CCOC2(CCC(=O)CC2)OO1 (stereo not given) | 23.36 | 100 | 
